Assay results reported in paper PMC10033663, “Acute pharmacological profile of 2C-B-Fly-NBOMe in male Wistar rats—pharmacokinetics, effects on behaviour and thermoregulation” (Frontiers in Pharmacology, 2023).
Read-outs that look alike come from different tables or passages of the source.

Legend:
5-HT2A receptor = tested on: 5-HT2A receptor; parameters: method as in Ettrup et al., 2011; details: among the examined NBOMes; ref Ettrup et al., 2011; cited from earlier work
male Wistar rats [1] = assay: Observation of 5-HT2A-related behaviour (head-twitch response, wet dog shakes); details: rat, in vivo
[2] = Pharmacokinetics of 2C-B-Fly-NBOMe in blood serum and brain tissue (LC/MS); assay type: in vivo, male Wistar rats; details: for k el: read-out: ke (h^-1) elimination rate constant (converted)
Experimental: For the pharmacokinetic study, rats were treated with 1 mg/kg s. c. of 2C-B-Fly-NBOMe and then sacrificed by decapitation after 0.5, 1, 2, 4, 8 and 24 h (n = 8 per time point). Collected blood was left to clot in a refrigerator for 1 h, then centrifuged for 10 min at 1500 g, 10°C, and the separated serum was collected. Whole brains were excised manually using surgical instruments. All serum and brain samples were stored at −20°C until the analysis.
200 μl of blood serum was diluted in a microtube with 200 μl of 1% ammonia solution and homogenized in a Bullet Blender tissue homogenizer (speed 2, time 5 min). Next, 400 μl of ethyl acetate was added by the automatic dispenser and the whole content was homogenized again (speed 3, time 5 min), additional 400 μl of ethyl acetate was added and the sample was homogenized for the last time. The homogenate was centrifuged (10 min, 25°C, 12,000 RPM), 600 μl of the top layer was transferred into a new microtube and 50 μl of 10% formic acid solution was added. After proper shaking, the solution was evaporated in the CentriVap concentrator. The residue was then dissolved in 100 μl of methanol and shaken for 10 min. Prior to the analysis, the solution was diluted 1:1 in deionized water, mixed and centrifuged.
100 µL of 1% ammonium hydroxide solution was added to 200 mg of brain tissue. A mixture was homogenized with 200 mg of zirconium oxide beads in a BulletBlender for 10 min (speed 5). 400 μL of ethyl acetate was added to the mixture and homogenized (BulletBlender, speed 3, time 5 min). Additional 400 µL of ethyl acetate was added to the mixture and homogenized (BulletBlender, speed 3, time 5 min). Samples were centrifuged (10 min, 25°C, 12,000 RPM), 400 µL of supernatant was acidified and completely evaporated (Centrivap Concentrator). The dry residue was reconstituted with 400 µL of methanol. Prior to the analysis, 250 µL of the solution was diluted with 750 µL of water, mixed, and centrifuged (0.2 µm PVDF filter).
The samples were analysed using ultra-high performance liquid chromatography-tandem mass spectrometry instrumentation (1,290 Infinity—6,460 Triple Quadrupole LC/MS Agilent Technologies with AJS electrospray ionization source). A column Kinetex Biphenyl (100 × 2.1 mm, 2.6 µm) with a pre-column was used for a chromatographic separation at 35°C with gradient elution in a system of 5 mM ammonium formate with 0.01% (v/v) formic acid (mobile phase A) and methanol with 0.01% (v/v) formic acid (mobile phase B). The gradient started at 10% B, increased from 10% to 50% B in 0.5 min and from 50% to 100% B in 1.5 min, held for 2 min at 100% B, decreased to 10% B in 0.5 min and held for 2 min at 10% B. Data were acquired in positive electrospray ionization (ESI) mode using a multiple reaction monitoring method, one quantification ion and three confirmation ions were used. 2C-B-Fly-NBOMe was quantified using an external matrix-matched calibration. The limit of quantification was 1 ng/ml (1 ng/g for brain tissue). The matrix-matched calibration was performed in duplicates; real samples were also processed in duplicates.
For the pharmacokinetic data, a one-compartment model with a first-order absorption equation ([Wijnand, 1988]) was fitted using a cubic spline interpolation: Ct=D·ka·F/V/ka−ke×expke·t−exp(−ka·t Where C = 2C-B-Fly-NBOMe concentration, t = time, D = dose, ka = absorption rate constant, F = bioavailability, V = volume of distribution, ke = elimination rate constant.
The half-life of the drug elimination was calculated using Package PKNCA version 0.9.4 implemented in R software ([Buckeridge et al., 2015]).

male Wistar rats [3] = assay: Thermoregulation (rectal temperature); assay type: in vivo; details: 5 mg/kg s. c.
Experimental: For the assessment of rectal temperature changes, rats were housed individually or in groups of five per cage. They were treated with 2C-B-Fly-NBOMe (5 mg/kg) or ctrl solution s. c. at 9:00 h. During the measurements, each rat was briefly immobilized in a plexiglass tube and then returned to its home cage. In total, 14 measurements were performed: […] for setting the baseline temperature, and then 4 subsequent 30 min measurements (09:30–11:00 h) and 6 hourly measurements (12:00–17:00 h).
Data from thermoregulatory experiments were analysed using 2 × 2 × 14 mixed factorial design with drug treatment (2C-B-Fly-NBOMe at 5 mg/kg or ctrl) and home cage conditions (individually and group-housed animals) as between-subjects factors and time (14 measurements) as a within-subjects factor. The baseline temperatures of animals were compared in the same manner.

[4] = brain, 1 mg/kg s. c., mean ± SEM
[5] = male, Wistar, rat, sc, brain, 1 mg/kg s. c., mean ± SEM
[6] = male, Wistar, rat, sc, serum, 1 mg/kg s. c., mean ± SEM
[7] = serum, 1 mg/kg s. c., mean ± SEM

For COc1ccccc1CNCCc1c2c(c(Br)c3c1OCC3)OCC2 [2C-B-Fly-NBOMe], the intrinsic activity (5-HT2A receptor) is listed as “the lowest”, the “behaviour typical of 5-HT2A receptor activation (head-twitch response or wet dog shakes)” value (male Wistar rats [1]) is listed as “did not demonstrate any behaviour” and the Maximum mean concentration ([2]; blood serum, 1 mg/kg s. c.) is listed as 28 ng/mL. For the same compound, the “Time of maximum mean concentration” value ([2]; blood serum, 1 mg/kg s. c.) was no more than 0.5 h, the “Time of peak drug concentration” value ([2]; brain tissue, 1 mg/kg s. c.) was 60 min and the “passage through the blood-brain barrier” value ([2]; brain versus serum concentration, 1 mg/kg s. c.) was “readily passes through the blood-brain barrier”. The AUC0-24 h [2, 4] was 826.3 ± 112.6 ng·h/g, the “ka (h^-1) absorption rate constant” value [2, 4] was 0.685 ± 0.034 h⁻¹ and the Tmax ([2]; male, Wistar, rat, sc, brain, 1 mg/kg s. c.) was 1.1 h. The half-life ([2]; male, Wistar, rat, sc, brain, 1 mg/kg s. c., Table 1, read-out: t1/2 (converted)) was 3.2 h, the Cmax [2, 5] was 159 ± 15.3 ng/g and the k el [2, 5] was 0.655 h⁻¹. For the same compound, the Tmax ([2]; male, Wistar, rat, sc, serum, 1 mg/kg s. c.) was 0.8 h, the half-life ([2]; male, Wistar, rat, sc, serum, 1 mg/kg s. c., Table 1, read-out: t1/2 (converted)) was 2.55 h and the Cmax [2, 6] was 28.4 ± 6.33 ng/mL. For the same compound, the bioavailability ([2]; male, Wistar, rat, sc, serum, 1 mg/kg s. c., mean ± SEM, one-compartment model, read-out: F (%) bioavailability) was 96.1 ± 4.8%, the AUC(0-t) ([2]; male, Wistar, rat, sc, serum, 1 mg/kg s. c., mean ± SEM, read-out: AUC0-24 h) was 115 ± 25.6 ng·h/mL and the k el [2, 6] was 0.733 h⁻¹. The half-life ([2]; male, Wistar, rat, subcutaneous, blood serum, 1 mg/kg s. c., read-out: half-life of elimination (converted)) was 1.56 h, the half-life ([2]; male, Wistar, rat, subcutaneous, brain, 1 mg/kg s. c., read-out: half-life of elimination (converted)) was 2.4 h and the concentration at 8 h ([2]; male, Wistar, rat, subcutaneous, brain, 8 h after 1 mg/kg s. c.) was 21 ng/g. The “Time of peak drug concentration” value ([2]; serum, 1 mg/kg s. c.) was 30 min, the “V d (mL) volume of distribution” value [2, 7] was 7.231 ± 0.362 mL and the “ka (h^-1) absorption rate constant” value [2, 7] was 0.731 ± 0.036 h⁻¹. The “presence in serum after 8 h” value ([2]; serum, 8 h after 1 mg/kg s. c.) was “almost undetectable”, the “trend of hypothermic reaction in group-housed animals” value (male Wistar rats [3]; animals housed in groups) was “not in animals housed in groups” and the “hypothermic trend in individually housed animals” value (male Wistar rats [3]; individually housed, first 90 min after application) was “the statistical difference was not significant”. The “effect of the treatment on body temperature (ANOVA)” value (male Wistar rats [3]; p < 0.05) was “significant effect of the treatment”.
